What is called IC50 is the concentration that gives 50% inhibition.

Converted amounts (≈) assume the structure as drawn.

The first test deals with anti-GEN scFv-AP fusion protein. In words: direct competitive chemiluminescent enzyme immunoassay. Format: binding, murine. Particulars: dcCLEIA; CR=[IC50(gentamicin)/IC50(analyte)]×100%.
As for `CC1(C)S[C@@H]2[C@H](NC(=O)[C@H](N)c3ccccc3)C(=O)N2[C@H]1C(=O)O` [Ampicillin], the Cross-reactivity is less than 0.10%.
`O=C(N[C@H](CO)[C@H](O)c1ccc([N+](=O)[O-])cc1)C(Cl)Cl` [Chloramphenicol] came in with a Cross-reactivity of less than 0.10%.
In turn, `CNC(C)C1CCC(N)C(OC2C(N)CC(N)C(OC3OCC(C)(O)C(NC)C3O)C2O)O1` (stereo not shown) [Gentamicin] yielded a Cross-reactivity of 100%.
The same measure, in the same setting: for `[H]/N=C(/N)N[C@H]1[C@H](O)[C@@H](O)[C@H](O[C@@H]2O[C@@H](C)[C@](O)(C=O)[C@H]2O[C@@H]2O[C@@H](CO)[C@H](O)[C@@H](O)[C@@H]2NC)[C@@H](N/C(N)=N\[H])[C@@H]1O` [Streptomycin] the value was less than 0.10%; for `NC[C@H]1O[C@H](O[C@H]2[C@H](O)[C@@H](O[C@H]3O[C@H](CO)[C@@H](O)[C@H](N)[C@H]3O)[C@H](N)C[C@@H]2N)[C@H](O)[C@@H](O)[C@@H]1O` [kanamycin], less than 0.10%; for Neomycin, less than 0.10%.

A further test has the same test system. In words: direct competitive ELISA. It is filed as binding, murine. The note with it: dcELISA, AP substrate p-nitrophenyl phosphate, OD 405 nm. (An ELISA detects its analyte on a solid surface through an enzyme-linked reagent.)
Regarding `CNC(C)C1CCC(N)C(OC2C(N)CC(N)C(OC3OCC(C)(O)C(NC)C3O)C2O)O1` (stereo not shown) [Gentamicin], the IC50 turned out to be 7.693 ng/mL (≈ 0.0161 µM).

Source of the values: paper PMC10810264 (Microchemical journal : devoted to the application of …, 2023).
